In patent US5137811A, “Method for diagnosing periodontal diseases with a substrate specific for aminopeptidase activity of periodontopathic bacteria” (Sunstar Kabushiki Kaisha, priority 1986, dated 1992):
Where a SMILES comes first, the peptide text is derived from it. The star is where a group is joined. βNA = c1ccc2cc(N*)ccc2c1; Bz = O=C(c1ccccc1)*

Columns and labels:
[1] = system: periodontopathic bacteria specific aminopeptidase activity; experiment: Hydrolytic activity of gingival crevicular fluid specimens, OD525 (Experiment 6); assay type: biochemical
Procedure: (§1) Substrate compounds for aminopeptidase enzyme having various color developing groups derived from β-naphthylamine were dissolved in 0.1M Tris-HCl buffer (pH 7.0) at the concentration of 0.2 mM to obtain substrate solutions.
(§2) To the substrate solution (1.5 ml) was added the above cell suspension (0.3 ml) and reacted at 37° C. for 60 minutes. After completion of the reaction, a coloring reagent [prepared by dissolving diazonium salt of Garnet GBC in 1M acetate buffer (containing 10% Tween 20, pH: 4.2) at the concentration of 0.5 mg/ml] was added and, after 15 minutes, the absorption at 525 nm was determined with a spectrophotometer.
Specimens of gingival crevicular fluid were collected with paper points from five subjects who were considered to be healthy from their clinical state, six subjects with gingivitis and six subjects with periodontitis. Each specimen was dispersed in Ringer's solution (1.5 ml), and the relative amount of spirochete to total bacteria: [formula] was determined with a phase contrast microscope. Further, the Ringer's solution (0.3 ml) was tested for hydrolytic activity using the substrate solution prepared in the same manner as described in Experiment 1. As substrates, there were used compounds of the formula [1], i.e., N-benzoylvalyl-glycyl-arginine-β-naphthylamide (BzVGR) and N-carbobenzoxy-valyl-glycyl-arginine-β-naphthylamide (CxVGR) were used.
According to the same manner as described in Experiment 4, hydrolytic activity was tested by using the compounds of the formulas and [2], i.e., glycyl-proline-βnaphthylamide (GP), N-benzoyl-arginyl-glycyl-phenylalanylproline-β-naphthylamide (BzRGFP), N-carbobenzoxy-valylglycyl-arginine-β-naphthylamide (CxVGR) and N-benzoylglycyl-arginine-β-naphthylamide (BzGR) alone or in combination. Hydrolytic activity was determined by measuring absorption at 525 nm (OD525) and expressed as follows.

Fusobacterium nucleatum [2] = experiment: Hydrolytic activity of cell suspension, substrates alone or in combination (Experiment 3); assay type: cell-based; conditions: three strains, Table 3
Procedure: (§3) The strains of Treponema were anaerobically cultivated using TYGVS media at 37° C. for 7 days, while other bacterial strains were cultivated using brain heart infusion broth at 37° C. for 48 to 72 hours. Each culture was diluted to obtain a bacterial cell suspension, the absorption at 660 nm of which was 1.0.
as §1, §2
(§4) On the basis of the average amount of released β-naphthylamine in each strain, the hydrolytic activity was expressed as follows: […]
(§5) According to the same manner as described in Experiment 1, periodontopathic bacteria specific aminopeptidase activity was tested by using four strains of Treponema denticola, five strains of B. gingivalis, four strains of Actinobacillus actinomycetemcomitans, two strains of Actinomyces israelli and three strains of Fusobacterium nucleatum. Abbreviations in Table 3 are the same as those in Tables 1 and 2. Hydrolytic activity "+++" means "40≤release amount<80 nmol/ml" and "++++" means "release amount≥80 nmol/ml".

Actinomyces israelli [3] = experiment: as above; assay type: cell-based; conditions: two strains, Table 3
Procedure: as §3, §1, §2, §4, §5

Treponema denticola [4] = experiment: as above; assay type: cell-based; conditions: four strains, Table 3
Procedure: as §3, §1, §2, §4, §5

[5] = system: Actinobacillus actinomycetemcomitans; experiment: as above; assay type: cell-based; conditions: four strains, Table 3
Procedure: as §3, §1, §2, §4, §5

B. gingivalis [6] = experiment: as above; assay type: cell-based; conditions: five strains, Table 3
Procedure: as §3, §1, §2, §4, §5

[7] = system: periodontopathic bacteria specific aminopeptidase activity; experiment: Hydrolytic activity of saliva supernatant, substrates alone or in combination (Experiment 9); assay type: biochemical; conditions: 37° C. for 4 hours, Table 9
Procedure: A saliva mixture was collected from a group consisting of ten healthy subjects and centrifuged to obtain a supernatant. Likewise, centrifuged supernatants were obtained from a group of ten subjects with adult periodontitis and a group of four localized juvenile periodontitis. The supernatant was used as a specimen and its hydrolytic activity was determined according to the same manner as described in Experiment 4 except that the reaction was carried out at 37° C. for 4 hours. As the substrates, there were used N-carbobenzoxy-valyl-glycyl-arginine-p-nitrophenol (CxVGR-pNP), N-carbobenzoxy-valyl-glycylarginine-4-methoxy-2-naphthylamide (CxVGR-4NA) and N-carbobenzoxy-valyl-glycyl-arginine-β-naphthylamide (CxVGR-βNA). Color was developed by using lN sodium hydroxide for CxVGR-pNP and Fast Blue BB for CxVGR-4NA and CxVGR-βNA.
According to the same manner as described in Experiment 7, hydrolytic activity was tested by using N-carbobenzoxy-valyl-glycyl-arginine-β-naphthylamide (CxVGR-βNA), N-benzoyl-arginyl-glycyl-phenylalanyl-proline-β-naphthylamide (BzRGFP-βNA), N-carbobenzoxy-valyl-glycylarginine-p-nitrophenol (CxVGR-pNP) and N-benzoyl-arginylglycyl-phenylalanyl-proline-p-nitrophenol (BzRGFP-pNP) alone or in combination as the substrates.

B. corporis = experiment: Hydrolytic activity of cell suspension on aminopeptidase substrates (Experiment 2); assay type: cell-based; conditions: Table 2
Method in brief: (§6)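 Absorbance at 525 nm of β-naphthylamine coupled to Garnet GBC diazonium salt gave the readout, with activity scored on the average amount freed per strain. Suspensions at A660 1.0 were reacted with 0.2 mM substrates at pH 7.0, 37° C., for 60 minutes.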

B. intermedius = experiment: as above; assay type: cell-based; conditions: three strains, Table 2
Method in brief: as §6

Fusobacterium nucleatum [8] = experiment: as above; assay type: cell-based; conditions: three strains, Table 2
Method in brief: as §6

B. melaninogenicus = experiment: as above; assay type: cell-based; conditions: two strains, Table 2
Method in brief: as §6

Actinomyces israelli [9] = experiment: as above; assay type: cell-based; conditions: two strains, Table 2
Method in brief: as §6

Treponema denticola [10] = experiment: as above; assay type: cell-based; conditions: four strains, Table 2
Method in brief: as §6

[11] = system: Actinobacillus actinomycetemcomitans; experiment: as above; assay type: cell-based; conditions: four strains, Table 2
Method in brief: as §6

B. denticola = experiment: as above; assay type: cell-based; conditions: Table 2
Method in brief: as §6

B. gingivalis [12] = experiment: as above; assay type: cell-based; conditions: five strains, Table 2
Method in brief: as §6

N=C(N)NCCC[C@H](NC(=O)c1ccccc1)C(=O)NCC(=O)N[C@@H](Cc1ccccc1)C(=O)N1CCC[C@H]1C(=O)Nc1ccc2ccccc2c1 [BzRGFP, N-benzoyl-arginyl-glycyl-phenylalanyl-proline-β-naphthylamide] (Bz-RGFP-βNA)
hydrolytic activity, absorption at 525 nm (OD525) ([1]; Gingivitis subject 1 (spirochete 7.3 %)): + (0.1≤OD525 <0.2)
hydrolytic activity, absorption at 525 nm (OD525) ([1]; Gingivitis subject 2 (spirochete 16.7 %)): + (0.1≤OD525 <0.2)
hydrolytic activity, absorption at 525 nm (OD525) ([1]; Gingivitis subject 3 (spirochete 20.5 %)): ++ (0.2≤OD525 <0.4)
hydrolytic activity, absorption at 525 nm (OD525) ([1]; Gingivitis subject 4 (spirochete 6.8 %)): - (OD525 <0.1)
hydrolytic activity, absorption at 525 nm (OD525) ([1]; Gingivitis subject 5 (spirochete 7.3 %)): - (OD525 <0.1)
hydrolytic activity, absorption at 525 nm (OD525) ([1]; Gingivitis subject 6 (spirochete 14.4 %)): + (0.1≤OD525 <0.2)
hydrolytic activity, absorption at 525 nm (OD525) ([1]; Healthy subject 1 (spirochete 0.1 %)): - (OD525 <0.1)
hydrolytic activity, absorption at 525 nm (OD525) ([1]; Healthy subject 2 (spirochete 2.5 %)): + (0.1≤OD525 <0.2)
hydrolytic activity, absorption at 525 nm (OD525) ([1]; Healthy subject 3 (spirochete 1.1 %)): - (OD525 <0.1)
hydrolytic activity, absorption at 525 nm (OD525) ([1]; Healthy subject 4 (spirochete 0.6 %)): - (OD525 <0.1)
hydrolytic activity, absorption at 525 nm (OD525) ([1]; Healthy subject 5 (spirochete 1.3 %)): - (OD525 <0.1)
hydrolytic activity, absorption at 525 nm (OD525) ([1]; Periodontitis subject 1 (spirochete 45.2 %)): +++ (0.4≤OD525 <0.8)
hydrolytic activity, absorption at 525 nm (OD525) ([1]; Periodontitis subject 2 (spirochete 30.3 %)): +++ (0.4≤OD525 <0.8)
hydrolytic activity, absorption at 525 nm (OD525) ([1]; Periodontitis subject 3 (spirochete 34.6 %)): +++ (0.4≤OD525 <0.8)
hydrolytic activity, absorption at 525 nm (OD525) ([1]; Periodontitis subject 4 (spirochete 21.2 %)): +++ (0.4≤OD525 <0.8)
hydrolytic activity, absorption at 525 nm (OD525) ([1]; Periodontitis subject 5 (spirochete 40.3 %)): +++ (0.4≤OD525 <0.8)
hydrolytic activity, absorption at 525 nm (OD525) ([1]; Periodontitis subject 6 (spirochete 35.1 %)): +++ (0.4≤OD525 <0.8)
hydrolytic activity (release amount) (Fusobacterium nucleatum [2]): - (release amount<5 nmol/ml)
hydrolytic activity (release amount) (Actinomyces israelli [3]): - (release amount<5 nmol/ml)
hydrolytic activity (release amount) (Treponema denticola [4]): ++ (20 ≤release amount<40 nmol/ml)
hydrolytic activity (release amount) [5]: - (release amount<5 nmol/ml)
hydrolytic activity (release amount) (B. gingivalis [6]): ++ (20 ≤release amount<40 nmol/ml)
hydrolytic activity ([7]; Adult Periodontitis subjects): 27.8 ± 7.4 nmol/mL
hydrolytic activity ([7]; Healthy subjects): 13.2 ± 5.4 nmol/mL
hydrolytic activity ([7]; Localized juvenile periodontitis subjects): 22.6 ± 5.3 nmol/mL
hydrolytic activity (average amount of released β-naphthylamine) (B. corporis): ++ (20 ≤release amount<40 nmol/ml)
hydrolytic activity (average amount of released β-naphthylamine) (B. intermedius): +++ (release amount≥40 nmol/ml)
hydrolytic activity (average amount of released β-naphthylamine) (Fusobacterium nucleatum [8]): - (release amount<5 nmol/ml)
hydrolytic activity (average amount of released β-naphthylamine) (B. melaninogenicus): +++ (release amount≥40 nmol/ml)
hydrolytic activity (average amount of released β-naphthylamine) (Actinomyces israelli [9]): - (release amount<5 nmol/ml)
hydrolytic activity (average amount of released β-naphthylamine) (Treponema denticola [10]): ++ (20 ≤release amount<40 nmol/ml)
hydrolytic activity (average amount of released β-naphthylamine) [11]: - (release amount<5 nmol/ml)
hydrolytic activity (average amount of released β-naphthylamine) (B. denticola): +++ (release amount≥40 nmol/ml)
hydrolytic activity (average amount of released β-naphthylamine) (B. gingivalis [12]): ++ (20 ≤release amount<40 nmol/ml)
